# ChEMBL document CHEMBL3885861, “Open TG-GATES”
# Species on record: Rattus norvegicus
# Assay: Open TG-GATES - Regimen: Daily Repeat
# Format: toxicity, organism-based, Sprague-Dawley
# Set-up: regimen Daily Repeat, gender Male, age 6 weeks
# Settings: in vivo, po, 150 mg/kg, route gavage, dose level High; for APTT / Bas / Eos / Fbg / Hb / Ht / Lym / MCH / MCHC / MCV / Mono / Neu / PT / Plat / RBC / Ret / WBC: tissue Blood
# [1] = 72 h, tissue Kidney, time 3 day
# [2] = 72 h, tissue Plasma, time 3 day
smiles,measurement,setting,value
CN(C)CCC=C1c2ccccc2CCc2ccccc21 [AMITRIPTYLINE],TERMINAL_BW,"72 h, time 3 day",200.8 g
same,APTT,"72 h, time 3 day",15 s
same,Bas,"72 h, time 3 day",0.2%
same,Eos,"72 h, time 3 day",1.2%
same,Fbg,"72 h, time 3 day",288.6 mg/dL
same,Hb,"72 h, time 3 day",14.4 g/dL
same,Ht,"72 h, time 3 day",43.5%
same,Lym,"72 h, time 3 day",79.6%
same,MCH,"72 h, time 3 day",20.5 pg
same,MCHC,"72 h, time 3 day",33.2%
same,MCV,"72 h, time 3 day",61.8 fL
same,Mono,"72 h, time 3 day",2.4%
same,Neu,"72 h, time 3 day",16.2%
same,PT,"72 h, time 3 day",16 s
same,Plat,"72 h, time 3 day",125 x10_4/uL
same,RBC,"72 h, time 3 day",705 x10_4/ul
same,Ret,"72 h, time 3 day",4.5%
same,WBC,"72 h, time 3 day",87.2 x10_2/uL
same,KIDNEY_L,[1],0.9 g
same,KIDNEY_R,[1],0.9 g
same,KIDNEY_TOTAL,[1],1.8 g
same,LIVER,"72 h, tissue Liver, time 3 day",9.1 g
same,A/G,[2],0.8
same,ALP,[2],1755.4 IU/L
same,ALT,[2],45.4 IU/L
same,AST,[2],63 IU/L
same,BUN,[2],13.8 mg/dL
same,CRE,[2],0.2 mg/dL
same,Ca,[2],10.7 mg/dL
same,Cl,[2],106.2 meq/L
same,DBIL,[2],0.016 mg/dL
same,GLC,[2],174.4 mg/dL
same,IP,[2],8 mg/dL
same,K,[2],4.4 meq/L
same,LDH,[2],86.2 IU/L
same,Na,[2],143.8 meq/L
same,PL,[2],155.8 mg/dL
same,RALB,[2],2.6 g/dL
same,TBIL,[2],0.052 mg/dL
same,TC,[2],94.2 mg/dL
same,TG,[2],93 mg/dL
same,TP,[2],5.8 g/dL
same,gamma-GTP,[2],0.6 IU/L
same,TERMINAL_BW,"[…], time 7 day",206.8 g
same,TERMINAL_BW,"[…], time 14 day",250.8 g
same,TERMINAL_BW,"[…], time 28 day",303.4 g
same,APTT,"[…], time 7 day",16.2 s
same,Bas,"[…], time 7 day",0%
same,Eos,"[…], time 7 day",1.4%
same,Fbg,"[…], time 7 day",413.4 mg/dL
same,Hb,"[…], time 7 day",15.3 g/dL
same,Ht,"[…], time 7 day",45.5%
same,Lym,"[…], time 7 day",70.8%
same,MCH,"[…], time 7 day",20.6 pg
same,MCHC,"[…], time 7 day",33.5%
same,MCV,"[…], time 7 day",61.6 fL
same,Mono,"[…], time 7 day",2.4%
same,Neu,"[…], time 7 day",24.6%
same,PT,"[…], time 7 day",15.9 s
same,Plat,"[…], time 7 day",108.8 x10_4/uL
same,RBC,"[…], time 7 day",740.8 x10_4/ul
same,Ret,"[…], time 7 day",3.1%
same,WBC,"[…], time 7 day",99.3 x10_2/uL
same,APTT,"[…], time 14 day",16.2 s
same,Bas,"[…], time 14 day",0.6%
same,Eos,"[…], time 14 day",0.8%
same,Fbg,"[…], time 14 day",326.6 mg/dL
same,Hb,"[…], time 14 day",15 g/dL
same,Ht,"[…], time 14 day",44.7%
same,Lym,"[…], time 14 day",76.6%
same,MCH,"[…], time 14 day",19.7 pg
same,MCHC,"[…], time 14 day",33.6%
same,MCV,"[…], time 14 day",58.6 fL
same,Mono,"[…], time 14 day",2.4%
same,Neu,"[…], time 14 day",19.2%
same,PT,"[…], time 14 day",16.6 s
same,Plat,"[…], time 14 day",110.7 x10_4/uL
same,RBC,"[…], time 14 day",763.4 x10_4/ul
same,Ret,"[…], time 14 day",2.8%
same,WBC,"[…], time 14 day",128.1 x10_2/uL
same,APTT,"[…], time 28 day",22.2 s
same,Bas,"[…], time 28 day",0.3%
same,Eos,"[…], time 28 day",1%
same,Fbg,"[…], time 28 day",311.3 mg/dL
same,Hb,"[…], time 28 day",15.8 g/dL
same,Ht,"[…], time 28 day",46.1%
